“And” between values parts separate entries of the source, which are not always exact repeats. Equal entries are not always repeated.
Assay: wn = mass fraction of the nth substance listed
Conditions: Liquid, Pulse-echo method, w2 = 0.5

FC(F)C(F)(F)F [pentafluoroethane] + FCF
speed of sound
Conditions	288.2 K	298.2 K	308.25 K	318.17 K	328.17 K	338.16 K
1650 kPa	500.3 m/s	–	–	–	–	–
1680 kPa	–	440.6 m/s and 440.2 m/s and 440.3 m/s	–	–	–	–
1750 kPa	501.7 m/s	441.7 m/s	–	–	–	–
1880 kPa	503.4 m/s	444 m/s	–	–	–	–
2010 kPa	505.1 m/s	446 m/s	–	–	–	–
2130 kPa	–	448.2 m/s	–	–	–	–
2170 kPa	–	–	383.3 m/s and 383.4 m/s	–	–	–
2250 kPa	508.2 m/s	450 m/s	384.9 m/s	–	–	–
2380 kPa	–	–	387.7 m/s	–	–	–
2510 kPa	511.3 m/s	454 m/s	390.5 m/s	–	–	–
2750 kPa	514.7 m/s	457.8 m/s	395.6 m/s	323.4 m/s	–	–
2760 kPa	–	–	–	323.6 m/s	–	–
2880 kPa	–	–	–	327.2 m/s	–	–
3010 kPa	517.7 m/s	461.7 m/s	400.6 m/s	330.8 m/s	–	–
3250 kPa	–	–	–	337.8 m/s	–	–
3470 kPa	–	–	–	–	257.9 m/s and 258.1 m/s and 258 m/s	–
3500 kPa	524 m/s	469.1 m/s	409.9 m/s	344.5 m/s	–	–
3590 kPa	–	–	–	–	263.4 m/s	–
3720 kPa	–	–	–	–	269.8 m/s	–
3860 kPa	–	–	–	–	275.4 m/s	–
4000 kPa	529.7 m/s	475.9 m/s	418.9 m/s	356.6 m/s	281.3 m/s	–
4250 kPa	–	–	–	–	290.2 m/s	–
4340 kPa	–	–	–	–	–	183.3 m/s
4410 kPa	–	–	–	–	–	189.7 m/s
4500 kPa	535.6 m/s	483 m/s	427.4 m/s	367.9 m/s	298.5 m/s	200.4 m/s
4750 kPa	–	–	–	–	–	217.6 m/s
5000 kPa	541.1 m/s	489.9 m/s	435.6 m/s	378.2 m/s	313.4 m/s	231.3 m/s
5500 kPa	–	–	–	–	–	255.4 m/s
6010 kPa	552 m/s	502.6 m/s	450.5 m/s	397.4 m/s	339.3 m/s	273.8 m/s
7010 kPa	562.3 m/s	514.4 m/s	464.7 m/s	414.5 m/s	360.6 m/s	303.5 m/s
8000 kPa	572.3 m/s	525.7 m/s	477.8 m/s	429.7 m/s	379.4 m/s	327.5 m/s
9000 kPa	582 m/s	536.4 m/s	490.2 m/s	444.1 m/s	396.7 m/s	348.4 m/s
10000 kPa	591.2 m/s	546.7 m/s	501.7 m/s	457.3 m/s	412.2 m/s	366.8 m/s
12000 kPa	608.7 m/s	566.4 m/s	523.6 m/s	481.7 m/s	440.2 m/s	398.9 m/s
14000 kPa	625.1 m/s	584.5 m/s	543.5 m/s	503.8 m/s	464.8 m/s	426.3 m/s
16010 kPa	640.6 m/s	601.6 m/s and 601.3 m/s	562.1 m/s	524.3 m/s	487.3 m/s	450.8 m/s
18000 kPa	655.7 m/s	617.3 m/s	579.5 m/s	543.1 m/s	507.4 m/s	472.9 m/s
20000 kPa	669.7 m/s	632.4 m/s	596 m/s	560.6 m/s	526.4 m/s	493.2 m/s
23000 kPa	689.6 m/s	653.8 m/s	619 m/s	585.3 m/s	552.3 m/s	521.1 m/s
26000 kPa	708.7 m/s	673.7 m/s	640 m/s	607.9 m/s	576.7 m/s	546.3 m/s
29010 kPa	727 m/s	693 m/s	660.1 m/s	628.9 m/s	598.7 m/s	569.7 m/s
32000 kPa	744 m/s	711.1 m/s	678.9 m/s	648.5 m/s	619.2 m/s	591.3 m/s
35000 kPa	760.4 m/s	728.5 m/s	697.2 m/s	667.3 m/s	638.6 m/s	611.3 m/s
40000 kPa	786.1 m/s	754.9 m/s	725.2 m/s	696.7 m/s	669 m/s	642.8 m/s
45000 kPa	810 m/s	780.3 m/s	751.3 m/s	723.8 m/s	697.4 m/s	671.7 m/s
50000 kPa	833 m/s	803.7 m/s	775.7 m/s	749.1 m/s	723.3 m/s	698.8 m/s
55000 kPa	854.6 m/s	826.3 m/s	798.8 m/s	772.8 m/s	747.8 m/s	724.1 m/s
60000 kPa	875.4 m/s	847.6 m/s	821 m/s	795.7 m/s	770.9 m/s	747.7 m/s
65000 kPa	895.5 m/s	868.2 m/s	841.9 m/s	817.3 m/s	793.1 m/s	770.1 m/s

Conditions	speed of sound [m/s]
298.25 K	440.4
308.25 K	383.4
318.17 K	323.4

From the NIST ThermoML archive (doi:10.1021/je060243s)
